Marks after values point to notes of the source that are not given here.
Key:
[1] = molecular target: T1, PAR2 (HT-29 cells, SLIGKV activation) (Homo sapiens, UniProt P55085); assay: Ca FLIPR TETRA assay, ANTAGONIST mode, stimulation with 8 μM SLIGKV; format: cell-based; details: HT-29 cells, antagonist mode, stimulation with 8 μM SLIGKV
T1 construct: host or cells: HT-29 cells
T1 sequence (P55085 26-397): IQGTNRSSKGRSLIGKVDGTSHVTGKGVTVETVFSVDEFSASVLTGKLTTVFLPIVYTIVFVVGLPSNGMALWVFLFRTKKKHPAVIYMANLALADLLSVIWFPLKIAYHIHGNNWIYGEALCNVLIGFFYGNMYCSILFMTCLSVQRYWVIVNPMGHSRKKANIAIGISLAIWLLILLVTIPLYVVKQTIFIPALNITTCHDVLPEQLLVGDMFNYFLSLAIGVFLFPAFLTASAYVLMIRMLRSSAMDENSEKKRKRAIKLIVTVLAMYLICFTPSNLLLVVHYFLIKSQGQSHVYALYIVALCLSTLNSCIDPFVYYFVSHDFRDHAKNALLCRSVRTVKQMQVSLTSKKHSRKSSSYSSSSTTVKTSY
How it was run: (§1)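 Antagonist-mode assay: dye-loaded HT-29 cells, compound 30 min at r.t., then stimulated with final 8 μM SLIGKV, 3.1 U/mL trypsin, 1 U/mL thrombin or 0.6 μM UTP; calcium fluorescence read.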

[2] = molecular target: T2, PAR2 (HT-29 cells, trypsin activation) (Homo sapiens, UniProt P55085); assay: Ca FLIPR TETRA assay, ANTAGONIST mode, stimulation with 3.1 U/mL trypsin; format: cell-based; details: HT-29 cells, antagonist mode, stimulation with 3.1 U/mL trypsin
T2 construct: host or cells: HT-29 cells
T2 sequence (P55085 26-397): T1 sequence (P55085 26-397)
How it was run: as §1

[3] = system: UTP-stimulated Ca2+ response in HT-29 cells; assay: Ca FLIPR TETRA assay, ANTAGONIST mode, stimulation with 0.6 μM UTP; format: cell-based, human; details: Homo sapiens; HT-29 cells, antagonist mode, stimulation with 0.6 μM UTP
How it was run: as §1

[4] = system: carrageenan-induced paw edema; assay: Rat carrageenan-induced paw edema model; format: in vivo, Sprague Dawley rats; details: for % inhibition of carrageenan induced paw edema: given before carrageenan challenge; for % inhibition of an established carrageenan induced rat paw edema: given 2 hours post carrageenan challenge
How it was run: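 Rats received intraplantar 1% carrageenan (100 ul) under isoflurane. Test compound in 0.5% MC/0.1% SDS was given systemically at 5 mL/kg either 1-3 h before or 2 h after the challenge. Paw swelling was measured by plethysmometer at 2-6 h and expressed as mean % effect.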

[5] = system: tryptase-induced mechanical hypersensitivity; assay: Rat tryptase-induced mechanical hypersensitivity model; format: in vivo, Sprague Dawley rats; details: given 30 minutes post tryptase challenge
Protocol: Male Sprague Dawley rats and BALB/c mice were housed in groups in a temperature controlled room and were acclimatized in the animal facility for at least three days prior to use. Experiments were performed during the light phase of the cycle. Animals have food and water ad libitum.
Example 64: Rat Tryptase-Induced Mechanical Hypersensitivity Model
Peripheral sensitization was induced by intra-dermal administration of 500 ng of tryptase in a volume of 10 ul PBS under isoflurane anesthesia. Rats were then placed on a wire mesh grid in separate compartments and allowed to acclimatize before testing. Mechanical hypersensitivity was assessed 30 min after tryptase injection using calibrated von Frey filaments applied perpendicular to the plantar surface of the affected paw using the up-and-down method. Test compounds or vehicle (0.5% MC/0.1% SDS) were systemically administered at doses indicated in a volume of 5 mL/kg 3-18 h before the tryptase challenge (Table 11) or 30 minutes post tryptase challenge (Table 12).
Data are expressed as the mean % effect. Statistical significance was assessed using t-test for comparison between naive and inflamed rats, and one-way ANOVA followed by post-hoc comparison test for overall drug effectiveness. A difference between groups is considered significant with a p value of <0.05. *, p<0.05; **, p<0.01; ***, p<0.001 vs. vehicle.

## Cc1nc(C(=O)N2CCN(C(=O)c3cn4nc(-c5ccc(F)cc5)cc(C(C)(C)C)c4n3)C(C)(C)C2)n[nH]1 [Compound I-343, (8-(tert-butyl)-6-(4-fluorophenyl)imidazo[1,2-b]pyridazin-2-yl)(2,2-dimethyl-4-(5-methyl-1H-1,2,4-triazole-3-carbonyl)piperazin-1-yl)methanone]
[1]
  IC50: 0.5 nM
[2]
  IC50: 0.8 nM
[3]
  IC50: 1030 nM
[4]; dose 0.3 mg/kg
  % inhibition of carrageenan induced paw edema: 19* %
[4]; dose 3 mg/kg
  % inhibition of an established carrageenan induced rat paw edema: 32** %
  % inhibition of carrageenan induced paw edema: 28* %
[4]; dose 10 mg/kg
  % inhibition of an established carrageenan induced rat paw edema: 49** %
  % inhibition of carrageenan induced paw edema: 34* %
[4]; dose 30 mg/kg
  % inhibition of an established carrageenan induced rat paw edema: 58** %
  % inhibition of carrageenan induced paw edema: 50*** %
[4]; dose 60 mg/kg
  % inhibition of an established carrageenan induced rat paw edema: 70*** %
[5]; dose 3 mg/kg
  % inhibition of an established tryptase-induced nociception: 12%
[5]; dose 10 mg/kg
  % inhibition of an established tryptase-induced nociception: 23%
[5]; dose 30 mg/kg
  % inhibition of an established tryptase-induced nociception: 49* %
